Consider one compound from ChEMBL document CHEMBL5370560, “Isolation of Anti-SARS-CoV-2 Natural Products Extracted from Mentha canadensis and the Semi-synthesis of Antiviral Derivatives” (J Nat Prod, 2023).

The test concerns SARS-CoV-2. Kind of test: Antiviral activity against SARS-CoV-2 hCoV-19/Egypt/NRC-03/2020 infected in Vero E6 cells assessed as reduction in plaque formation pretreated with cells for 1 hr followed by viral infection for 1 hr with subsequent replacement of compound containing medium and measured after 3 to 4 days by crystal violet staining based analysis. In kind it is functional, organism-based. Particulars: Severe acute respiratory syndrome coronavirus 2, hCoV-19/Egypt/NRC-03/2020, Vero C1008.

Values after ≈ are worked out from the molar mass of the structure shown.

A word on the IC50: it is the point on the concentration scale where inhibition reaches its midpoint. Regarding `O=C(/C=C/c1ccc(O)c(O)c1)O[C@H](Cc1ccc(O)c(O)c1)C(=O)O` [ROSMARINIC ACID], the IC50 was determined as 0.0255 mg/L (≈ 0.0707 µM).
